Test results as given in patent US20230133672A1, “FUSION POLYPEPTIDE COMPRISING GDF15 AND POLYPEPTIDE REGION CAPABLE OF O-GLYCOSYLATION” (LG CHEM, LTD., priority 2019, published 2023).

Assays:
[1] = Repeated administration: body weight change in DIO mice; format: in vivo, Mouse, C57BL/6J-DIO
Protocol: The body weight of each mouse was measured on the day of the start of administration of the test substances (before administration), and thereafter, the body weight was measured every day ([…]), and the amount of the administration solution of the test substances was determined on the basis of the most recently measured body weight.
All the experimental results obtained in the present example were expressed as mean±standard error and tested using Prism5 (version 5.01). One-way analysis of variance (ANOVA) was performed on all data, and when significance was observed, Dunnett's test was performed to find out the test groups with a significant difference from the control group (significance level: two-sided 5% and 1%, 0.1%).
Except for the administration dose, animal number and administration cycle, most of the test processes were the same as in Example 2.1.1 above.
The test substances were administered twice a week (Days 0, 4, 7, 11, 14, 18, 21, 25) for a total of 8 times. For comparison, the control group in which the control substance Semaglutide was administered every day was prepared, and the comparison group in which Semaglutide was administered every day was administered once a day daily, and all the administration was progressed from 9 AM.

[2] = Pharmacokinetic test, subcutaneous administration to SD rats (serum ELISA, Human GDF15 Immunoassay); format: in vivo; conditions: 2 mg/kg subcutaneous, serum
Protocol: For evaluation of pharmacokinetic characteristics when each fusion polypeptide was subcutaneously administered to rats, the fusion polypeptides HT-ID1-GDF15, HT-ID2-GDF15 and HT-ID3-GDF15 were subcutaneously administered into SD rats (Koatech, male, 7-week-old, about 250 g; n=3 each; test group) in an amount of 2 mg/kg, respectively, and about 200 μl of blood was collected through the caudal vein at a predetermined time. The blood collection time was performed before administration, and 1, 2, 4, 8, 24, 48, 72, 96, 168, 240 and 336 hours after administration. As the control group for comparison of pharmacokinetic characteristics, GDF15 (R&D Systems) was subcutaneously administered in an amount of 2 mg/kg by the same method to prepare a GDF15 administration group.
After administering into SD Rats as above, blood collected by time-point was centrifuged to obtain serum, and ELISA was performed using Human GDF15 Immunoassay (SGD150, R&D Systems), and the concentration in the serum was measured depending on the time of each polypeptide.

For “HT-ID3-GDF15: Fusion polypeptide: His-Tag, TEV cleavage site, three IgD hinges, GS linker, GDF15 (SEQ ID NO: 3)”, the “Body Weight, Mean” value ([1]; Day 0, 3 nmol/kg twice a week) was 100.0 % of initial, the “Body Weight, Mean” value ([1]; Day 0, 10 nmol/kg twice a week) was 100.0 % of initial and the “Body Weight, Mean” value ([1]; Day 0, 30 nmol/kg twice a week) was 100.0 % of initial. The “Body Weight, Mean” value ([1]; Day 1, 3 nmol/kg twice a week) was 98.2 % of initial, the “Body Weight, Mean” value ([1]; Day 1, 10 nmol/kg twice a week) was 98.5 % of initial and the “Body Weight, Mean” value ([1]; Day 1, 30 nmol/kg twice a week) was 98.2 % of initial. The “Body Weight, Mean” value ([1]; Day 2, 3 nmol/kg twice a week) was 96.9 % of initial, the “Body Weight, Mean” value ([1]; Day 2, 10 nmol/kg twice a week) was 97.3 % of initial and the “Body Weight, Mean” value ([1]; Day 2, 30 nmol/kg twice a week) was 97.1 % of initial. For the same substance, the “Body Weight, Mean” value ([1]; Day 3, 3 nmol/kg twice a week) was 95.6 % of initial, the “Body Weight, Mean” value ([1]; Day 3, 10 nmol/kg twice a week) was 95.7 % of initial and the “Body Weight, Mean” value ([1]; Day 3, 30 nmol/kg twice a week) was 95.8 % of initial. The “Body Weight, Mean” value ([1]; Day 4, 3 nmol/kg twice a week) was 94.4 % of initial, the “Body Weight, Mean” value ([1]; Day 4, 10 nmol/kg twice a week) was 94.6 % of initial and the “Body Weight, Mean” value ([1]; Day 4, 30 nmol/kg twice a week) was 94.8 % of initial. The “Body Weight, Mean” value ([1]; Day 5, 3 nmol/kg twice a week) was 92.8 % of initial, the “Body Weight, Mean” value ([1]; Day 5, 10 nmol/kg twice a week) was 92.8 % of initial and the “Body Weight, Mean” value ([1]; Day 5, 30 nmol/kg twice a week) was 92.8 % of initial. For the same substance, the “Body Weight, Mean” value ([1]; Day 6, 3 nmol/kg twice a week) was 91.9 % of initial, the “Body Weight, Mean” value ([1]; Day 6, 10 nmol/kg twice a week) was 91.5 % of initial and the “Body Weight, Mean” value ([1]; Day 6, 30 nmol/kg twice a week) was 91.7 % of initial. For the same substance, the “Body Weight, Mean” value ([1]; Day 7, 3 nmol/kg twice a week) was 91.0 % of initial, the “Body Weight, Mean” value ([1]; Day 7, 10 nmol/kg twice a week) was 90.7 % of initial and the “Body Weight, Mean” value ([1]; Day 7, 30 nmol/kg twice a week) was 90.8 % of initial. For the same substance, the “Body Weight, Mean” value ([1]; Day 8, 3 nmol/kg twice a week) was 90.0 % of initial, the “Body Weight, Mean” value ([1]; Day 8, 10 nmol/kg twice a week) was 89.8 % of initial and the “Body Weight, Mean” value ([1]; Day 8, 30 nmol/kg twice a week) was 89.8 % of initial. The “Body Weight, Mean” value ([1]; Day 9, 3 nmol/kg twice a week) was 89.6 % of initial, the “Body Weight, Mean” value ([1]; Day 9, 10 nmol/kg twice a week) was 89.3 % of initial and the “Body Weight, Mean” value ([1]; Day 9, 30 nmol/kg twice a week) was 89.8 % of initial. The “Body Weight, Mean” value ([1]; Day 10, 3 nmol/kg twice a week) was 89.1 % of initial, the “Body Weight, Mean” value ([1]; Day 10, 10 nmol/kg twice a week) was 88.7 % of initial and the “Body Weight, Mean” value ([1]; Day 10, 30 nmol/kg twice a week) was 89.7 % of initial. The “Body Weight, Mean” value ([1]; Day 11, 3 nmol/kg twice a week) was 91.5 % of initial, the “Body Weight, Mean” value ([1]; Day 11, 10 nmol/kg twice a week) was 90.9 % of initial and the “Body Weight, Mean” value ([1]; Day 11, 30 nmol/kg twice a week) was 92.0 % of initial. The “Body Weight, Mean” value ([1]; Day 12, 3 nmol/kg twice a week) was 91.5 % of initial, the “Body Weight, Mean” value ([1]; Day 12, 10 nmol/kg twice a week) was 89.8 % of initial and the “Body Weight, Mean” value ([1]; Day 12, 30 nmol/kg twice a week) was 90.0 % of initial. The “Body Weight, Mean” value ([1]; Day 13, 3 nmol/kg twice a week) was 92.3 % of initial, the “Body Weight, Mean” value ([1]; Day 13, 10 nmol/kg twice a week) was 90.1 % of initial and the “Body Weight, Mean” value ([1]; Day 13, 30 nmol/kg twice a week) was 90.4 % of initial. For the same substance, the “Body Weight, Mean” value ([1]; Day 14, 3 nmol/kg twice a week) was 92.5 % of initial, the “Body Weight, Mean” value ([1]; Day 14, 10 nmol/kg twice a week) was 91.0 % of initial and the “Body Weight, Mean” value ([1]; Day 14, 30 nmol/kg twice a week) was 90.9 % of initial. For the same substance, the “Body Weight, Mean” value ([1]; Day 15, 3 nmol/kg twice a week) was 92.6 % of initial, the “Body Weight, Mean” value ([1]; Day 15, 10 nmol/kg twice a week) was 90.0 % of initial and the “Body Weight, Mean” value ([1]; Day 15, 30 nmol/kg twice a week) was 89.3 % of initial. For the same substance, the “Body Weight, Mean” value ([1]; Day 16, 3 nmol/kg twice a week) was 93.3 % of initial, the “Body Weight, Mean” value ([1]; Day 16, 10 nmol/kg twice a week) was 91.2 % of initial and the “Body Weight, Mean” value ([1]; Day 16, 30 nmol/kg twice a week) was 89.6 % of initial. For the same substance, the “Body Weight, Mean” value ([1]; Day 17, 3 nmol/kg twice a week) was 94.0 % of initial, the “Body Weight, Mean” value ([1]; Day 17, 10 nmol/kg twice a week) was 91.8 % of initial and the “Body Weight, Mean” value ([1]; Day 17, 30 nmol/kg twice a week) was 90.4 % of initial. The “Body Weight, Mean” value ([1]; Day 18, 3 nmol/kg twice a week) was 94.4 % of initial, the “Body Weight, Mean” value ([1]; Day 18, 10 nmol/kg twice a week) was 92.3 % of initial and the “Body Weight, Mean” value ([1]; Day 18, 30 nmol/kg twice a week) was 91.0 % of initial. The “Body Weight, Mean” value ([1]; Day 19, 3 nmol/kg twice a week) was 95.0 % of initial, the “Body Weight, Mean” value ([1]; Day 19, 10 nmol/kg twice a week) was 91.9 % of initial and the “Body Weight, Mean” value ([1]; Day 19, 30 nmol/kg twice a week) was 90.0 % of initial. The “Body Weight, Mean” value ([1]; Day 20, 3 nmol/kg twice a week) was 95.2 % of initial, the “Body Weight, Mean” value ([1]; Day 20, 10 nmol/kg twice a week) was 91.2 % of initial and the “Body Weight, Mean” value ([1]; Day 20, 30 nmol/kg twice a week) was 89.6 % of initial. The “Body Weight, Mean” value ([1]; Day 21, 3 nmol/kg twice a week) was 95.8 % of initial, the “Body Weight, Mean” value ([1]; Day 21, 10 nmol/kg twice a week) was 92.1 % of initial and the “Body Weight, Mean” value ([1]; Day 21, 30 nmol/kg twice a week) was 90.4 % of initial. The “Body Weight, Mean” value ([1]; Day 22, 3 nmol/kg twice a week) was 96.4 % of initial, the “Body Weight, Mean” value ([1]; Day 22, 10 nmol/kg twice a week) was 92.1 % of initial and the “Body Weight, Mean” value ([1]; Day 22, 30 nmol/kg twice a week) was 90.0 % of initial. The “Body Weight, Mean” value ([1]; Day 23, 3 nmol/kg twice a week) was 97.1 % of initial, the “Body Weight, Mean” value ([1]; Day 23, 10 nmol/kg twice a week) was 92.5 % of initial and the “Body Weight, Mean” value ([1]; Day 23, 30 nmol/kg twice a week) was 90.0 % of initial. For the same substance, the “Body Weight, Mean” value ([1]; Day 24, 3 nmol/kg twice a week) was 97.4 % of initial, the “Body Weight, Mean” value ([1]; Day 24, 10 nmol/kg twice a week) was 93.2 % of initial and the “Body Weight, Mean” value ([1]; Day 24, 30 nmol/kg twice a week) was 91.0 % of initial. The “Body Weight, Mean” value ([1]; Day 25, 3 nmol/kg twice a week) was 97.6 % of initial, the “Body Weight, Mean” value ([1]; Day 25, 10 nmol/kg twice a week) was 93.7 % of initial and the “Body Weight, Mean” value ([1]; Day 25, 30 nmol/kg twice a week) was 91.5 % of initial. For the same substance, the “Body Weight, Mean” value ([1]; Day 26, 3 nmol/kg twice a week) was 98.5 % of initial, the “Body Weight, Mean” value ([1]; Day 26, 10 nmol/kg twice a week) was 94.2 % of initial and the “Body Weight, Mean” value ([1]; Day 26, 30 nmol/kg twice a week) was 91.5 % of initial. The “Body Weight, Mean” value ([1]; Day 27, 3 nmol/kg twice a week) was 98.0 % of initial, the “Body Weight, Mean” value ([1]; Day 27, 10 nmol/kg twice a week) was 94.4 % of initial and the “Body Weight, Mean” value ([1]; Day 27, 30 nmol/kg twice a week) was 91.2 % of initial. For the same substance, the “Body Weight, Mean” value ([1]; Day 28, 3 nmol/kg twice a week) was 98.6 % of initial, the “Body Weight, Mean” value ([1]; Day 28, 10 nmol/kg twice a week) was 94.1 % of initial and the “Body Weight, Mean” value ([1]; Day 28, 30 nmol/kg twice a week) was 91.4 % of initial. For the same substance, the “AUCextp (%) [(AUCinf − AUClast)/AUCinf]*100” value [2] was 0.287%, the AUClast [2] was 76200 ng·h/mL and the “Cmax (maximum concentration in blood)” value [2] was 1110 ng/mL. For the same substance, the “Tmax (reaching time to maximum concentration in blood)” value [2] was 24 h, the “t1/2 (loss half-life)” value [2] was 26.2 h and the AUCinf ([2]; extrapolated to infinity) was 76400 ng·h/mL.
